# Measured values taken from US20020045271A1, “COMPOUNDS AND METHODS FOR IDENTIFYING COMPOUNDS THAT INTERACT WITH MICROSOMAL TRIGLYCERIDE TRANSFER PROTEIN BINDING SITES ON APOLIPOPROTEIN B AND MODULATE LIPID BIOSYNTHESIS” (LICATA AND TYRRELL P.C., priority 1998, published 2002).
# Experiments:
# [1] = biological target: T1, immobilized LDL (Homo sapiens, UniProt P04114); assay: Binding of apoA-I and apoA-I/lipid complexes to immobilized LDL
# Description: The binding of apoA-I and apoA-I/lipid complexes to immobilized LDL was examined. ApoA-I incubated with or without lipid vesicles was subjected to ultracentrifugation and apoA-I/lipid complexes were isolated. Binding of apoA-I and apoA-I/lipid complexes to immobilized LDL was then examined.
# Target sequence in this assay (P04114 28-4563): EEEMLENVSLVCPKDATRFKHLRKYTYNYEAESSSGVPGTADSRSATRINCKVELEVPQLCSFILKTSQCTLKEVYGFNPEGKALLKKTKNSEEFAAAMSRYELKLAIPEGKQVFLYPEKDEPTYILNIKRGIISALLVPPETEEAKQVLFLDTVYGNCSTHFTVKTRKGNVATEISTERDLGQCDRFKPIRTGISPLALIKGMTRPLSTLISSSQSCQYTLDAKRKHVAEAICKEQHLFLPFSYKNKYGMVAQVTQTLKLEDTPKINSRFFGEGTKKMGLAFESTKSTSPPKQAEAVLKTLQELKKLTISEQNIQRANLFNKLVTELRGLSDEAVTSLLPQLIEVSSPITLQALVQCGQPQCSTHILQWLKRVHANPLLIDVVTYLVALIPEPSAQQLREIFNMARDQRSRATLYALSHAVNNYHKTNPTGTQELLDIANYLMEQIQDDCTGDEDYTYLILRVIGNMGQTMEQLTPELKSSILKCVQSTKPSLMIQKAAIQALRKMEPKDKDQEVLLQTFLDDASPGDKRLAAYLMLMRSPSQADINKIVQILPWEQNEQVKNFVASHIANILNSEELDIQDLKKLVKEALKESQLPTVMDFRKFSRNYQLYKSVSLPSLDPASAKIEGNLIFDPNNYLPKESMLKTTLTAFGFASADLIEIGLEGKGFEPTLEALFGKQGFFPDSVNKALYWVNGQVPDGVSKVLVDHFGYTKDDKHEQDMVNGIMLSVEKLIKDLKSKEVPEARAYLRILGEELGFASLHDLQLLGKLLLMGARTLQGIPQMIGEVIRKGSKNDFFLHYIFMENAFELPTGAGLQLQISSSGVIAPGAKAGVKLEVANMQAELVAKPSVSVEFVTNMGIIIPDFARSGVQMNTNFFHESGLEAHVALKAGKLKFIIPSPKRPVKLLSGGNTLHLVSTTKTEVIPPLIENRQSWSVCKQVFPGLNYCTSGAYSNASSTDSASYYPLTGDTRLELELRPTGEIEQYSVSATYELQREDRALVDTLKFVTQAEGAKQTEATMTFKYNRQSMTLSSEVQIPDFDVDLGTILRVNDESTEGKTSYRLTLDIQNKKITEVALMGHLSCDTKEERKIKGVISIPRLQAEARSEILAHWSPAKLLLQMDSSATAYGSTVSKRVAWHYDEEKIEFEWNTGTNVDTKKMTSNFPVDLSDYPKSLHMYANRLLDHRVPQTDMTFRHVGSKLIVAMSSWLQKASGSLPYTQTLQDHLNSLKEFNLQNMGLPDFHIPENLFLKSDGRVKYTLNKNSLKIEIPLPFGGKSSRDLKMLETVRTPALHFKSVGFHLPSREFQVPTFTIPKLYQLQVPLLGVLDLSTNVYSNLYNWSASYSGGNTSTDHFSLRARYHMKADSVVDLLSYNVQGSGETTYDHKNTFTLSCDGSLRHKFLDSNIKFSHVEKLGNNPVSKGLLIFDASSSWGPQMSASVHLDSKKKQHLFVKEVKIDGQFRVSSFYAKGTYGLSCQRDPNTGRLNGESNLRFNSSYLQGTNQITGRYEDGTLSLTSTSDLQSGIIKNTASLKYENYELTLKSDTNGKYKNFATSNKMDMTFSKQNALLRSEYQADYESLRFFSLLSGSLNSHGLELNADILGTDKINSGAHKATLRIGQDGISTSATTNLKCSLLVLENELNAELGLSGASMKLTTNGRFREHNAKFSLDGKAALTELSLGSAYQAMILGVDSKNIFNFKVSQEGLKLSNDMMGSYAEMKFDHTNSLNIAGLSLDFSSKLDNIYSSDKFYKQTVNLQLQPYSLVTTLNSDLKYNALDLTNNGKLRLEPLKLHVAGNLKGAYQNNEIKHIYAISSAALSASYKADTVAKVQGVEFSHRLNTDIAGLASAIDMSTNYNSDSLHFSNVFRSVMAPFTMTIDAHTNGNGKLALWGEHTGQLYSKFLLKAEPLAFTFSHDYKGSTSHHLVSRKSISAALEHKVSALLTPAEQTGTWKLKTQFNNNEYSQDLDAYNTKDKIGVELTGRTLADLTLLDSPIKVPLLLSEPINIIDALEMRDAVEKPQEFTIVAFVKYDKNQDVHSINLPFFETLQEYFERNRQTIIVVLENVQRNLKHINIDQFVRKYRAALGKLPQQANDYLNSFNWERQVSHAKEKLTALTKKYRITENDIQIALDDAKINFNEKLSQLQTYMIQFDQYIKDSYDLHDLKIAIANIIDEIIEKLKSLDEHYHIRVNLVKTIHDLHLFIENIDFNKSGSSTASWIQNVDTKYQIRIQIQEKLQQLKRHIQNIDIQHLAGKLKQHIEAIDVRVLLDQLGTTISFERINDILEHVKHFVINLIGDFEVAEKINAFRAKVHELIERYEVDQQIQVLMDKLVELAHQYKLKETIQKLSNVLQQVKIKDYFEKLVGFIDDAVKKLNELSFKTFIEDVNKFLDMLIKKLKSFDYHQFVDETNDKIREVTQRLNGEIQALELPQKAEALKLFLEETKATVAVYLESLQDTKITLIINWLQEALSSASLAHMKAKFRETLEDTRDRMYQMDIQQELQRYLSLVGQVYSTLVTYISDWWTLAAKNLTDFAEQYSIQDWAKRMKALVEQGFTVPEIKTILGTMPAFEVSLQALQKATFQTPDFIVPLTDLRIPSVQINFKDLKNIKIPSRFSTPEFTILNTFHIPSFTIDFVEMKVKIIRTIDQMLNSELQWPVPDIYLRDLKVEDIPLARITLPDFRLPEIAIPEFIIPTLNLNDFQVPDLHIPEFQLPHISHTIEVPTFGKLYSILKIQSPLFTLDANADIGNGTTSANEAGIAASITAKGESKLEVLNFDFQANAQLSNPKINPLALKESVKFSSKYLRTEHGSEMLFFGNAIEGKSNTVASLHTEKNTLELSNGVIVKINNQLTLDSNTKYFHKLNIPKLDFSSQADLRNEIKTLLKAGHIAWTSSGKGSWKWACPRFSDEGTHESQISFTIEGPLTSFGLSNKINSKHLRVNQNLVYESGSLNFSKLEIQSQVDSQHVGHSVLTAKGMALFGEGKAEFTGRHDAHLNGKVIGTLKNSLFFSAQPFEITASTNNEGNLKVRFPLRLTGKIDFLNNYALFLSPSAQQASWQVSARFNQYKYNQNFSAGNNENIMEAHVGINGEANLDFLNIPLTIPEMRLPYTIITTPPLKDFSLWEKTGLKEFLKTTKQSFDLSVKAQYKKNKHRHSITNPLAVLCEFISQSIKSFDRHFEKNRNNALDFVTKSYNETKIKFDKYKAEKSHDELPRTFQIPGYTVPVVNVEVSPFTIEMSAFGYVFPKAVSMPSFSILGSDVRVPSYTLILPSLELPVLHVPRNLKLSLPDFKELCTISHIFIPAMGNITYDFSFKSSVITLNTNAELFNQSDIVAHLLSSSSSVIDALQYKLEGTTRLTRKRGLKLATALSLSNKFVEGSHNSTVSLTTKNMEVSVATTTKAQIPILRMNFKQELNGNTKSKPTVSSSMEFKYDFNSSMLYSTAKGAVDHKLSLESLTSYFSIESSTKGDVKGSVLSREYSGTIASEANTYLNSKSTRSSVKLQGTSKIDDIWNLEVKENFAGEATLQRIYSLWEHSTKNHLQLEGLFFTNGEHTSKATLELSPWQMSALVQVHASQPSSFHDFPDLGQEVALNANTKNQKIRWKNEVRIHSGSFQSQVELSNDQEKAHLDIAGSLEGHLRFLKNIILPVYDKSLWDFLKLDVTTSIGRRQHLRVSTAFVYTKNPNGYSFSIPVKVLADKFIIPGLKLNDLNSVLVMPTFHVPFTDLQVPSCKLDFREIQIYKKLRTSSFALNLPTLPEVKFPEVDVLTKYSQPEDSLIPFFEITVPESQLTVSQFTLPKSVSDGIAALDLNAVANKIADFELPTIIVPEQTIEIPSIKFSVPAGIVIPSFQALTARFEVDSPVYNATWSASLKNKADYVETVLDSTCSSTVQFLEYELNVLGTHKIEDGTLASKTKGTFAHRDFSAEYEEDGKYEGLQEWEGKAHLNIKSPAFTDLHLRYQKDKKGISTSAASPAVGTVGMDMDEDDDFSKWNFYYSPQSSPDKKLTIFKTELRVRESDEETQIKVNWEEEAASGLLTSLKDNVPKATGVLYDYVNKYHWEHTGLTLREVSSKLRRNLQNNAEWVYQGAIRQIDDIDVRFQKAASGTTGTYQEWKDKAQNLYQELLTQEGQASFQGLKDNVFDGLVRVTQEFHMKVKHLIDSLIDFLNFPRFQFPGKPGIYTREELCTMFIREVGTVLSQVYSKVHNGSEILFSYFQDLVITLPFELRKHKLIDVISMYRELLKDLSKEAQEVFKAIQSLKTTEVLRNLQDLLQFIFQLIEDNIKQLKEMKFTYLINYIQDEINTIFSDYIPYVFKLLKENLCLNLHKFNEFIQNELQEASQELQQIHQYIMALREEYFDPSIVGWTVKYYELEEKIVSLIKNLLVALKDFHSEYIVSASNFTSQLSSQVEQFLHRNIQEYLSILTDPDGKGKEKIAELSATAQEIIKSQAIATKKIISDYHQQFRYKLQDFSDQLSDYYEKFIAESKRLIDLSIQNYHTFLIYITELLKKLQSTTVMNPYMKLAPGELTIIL
# [2] = biological target: T2, LDL/MTP binding (Bos taurus, UniProt P55156); assay: Effect of lipid vesicles on binding of LDL to immobilized MTP; conditions: for effect of inclusion in PC vesicles on PC-stimulated binding of LDL to MTP: added to PC vesicles
# T2 sequence (P55156 12-887): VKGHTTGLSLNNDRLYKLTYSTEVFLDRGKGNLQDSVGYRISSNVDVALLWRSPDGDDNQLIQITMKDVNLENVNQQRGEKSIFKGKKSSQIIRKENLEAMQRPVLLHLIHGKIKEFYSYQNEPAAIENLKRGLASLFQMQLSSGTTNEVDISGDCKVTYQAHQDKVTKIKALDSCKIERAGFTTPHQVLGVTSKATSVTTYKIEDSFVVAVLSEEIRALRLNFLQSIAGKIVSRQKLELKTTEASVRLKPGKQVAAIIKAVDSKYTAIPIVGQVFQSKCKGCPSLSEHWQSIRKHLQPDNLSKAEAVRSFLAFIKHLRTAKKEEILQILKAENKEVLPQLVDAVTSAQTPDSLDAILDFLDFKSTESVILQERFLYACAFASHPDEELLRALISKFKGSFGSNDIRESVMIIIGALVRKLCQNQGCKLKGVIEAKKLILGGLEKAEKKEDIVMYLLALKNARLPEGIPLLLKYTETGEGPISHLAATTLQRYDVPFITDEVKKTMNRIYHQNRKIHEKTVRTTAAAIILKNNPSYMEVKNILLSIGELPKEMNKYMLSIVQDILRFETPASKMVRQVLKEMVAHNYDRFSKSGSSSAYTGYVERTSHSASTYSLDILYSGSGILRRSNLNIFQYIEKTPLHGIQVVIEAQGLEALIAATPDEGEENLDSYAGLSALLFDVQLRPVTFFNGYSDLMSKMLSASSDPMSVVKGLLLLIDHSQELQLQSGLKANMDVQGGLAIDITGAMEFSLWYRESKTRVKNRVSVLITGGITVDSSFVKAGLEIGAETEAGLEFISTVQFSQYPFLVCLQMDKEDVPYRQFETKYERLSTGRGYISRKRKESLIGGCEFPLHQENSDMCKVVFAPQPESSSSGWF
# T2 sequence (P05307 21-510 partner): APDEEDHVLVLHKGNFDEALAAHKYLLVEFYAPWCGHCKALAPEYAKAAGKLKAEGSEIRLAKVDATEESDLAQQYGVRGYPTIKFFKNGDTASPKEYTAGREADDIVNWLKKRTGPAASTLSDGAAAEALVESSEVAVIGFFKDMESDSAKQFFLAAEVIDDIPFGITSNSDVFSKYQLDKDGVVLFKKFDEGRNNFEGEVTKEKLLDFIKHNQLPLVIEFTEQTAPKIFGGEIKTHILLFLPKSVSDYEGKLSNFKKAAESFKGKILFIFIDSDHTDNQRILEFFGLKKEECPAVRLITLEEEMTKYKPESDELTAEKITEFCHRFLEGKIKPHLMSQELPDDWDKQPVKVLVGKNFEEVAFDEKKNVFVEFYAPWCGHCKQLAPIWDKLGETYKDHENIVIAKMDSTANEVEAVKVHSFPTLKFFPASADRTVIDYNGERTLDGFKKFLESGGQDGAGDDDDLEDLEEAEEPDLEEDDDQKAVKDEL
# Description: The effect of lipids on the binding of MTP with apoB was also examined. Phosphatidylcholine (PC) and sphingomyelin increased the interactions by 2 and 1.5 times respectively. In similar studies, PC vesicles at a concentration of 2.4 mM increased the binding of LDL to MTP by 2 to 4 times. As a control, the effect of phospholipids on the binding of LDL to the monoclonal antibody 1D1 and polyclonal antibodies was studied. 1D1 binds to a portion of the MTP specific binding site on apoB. This antibody also recognizes all subclasses of VLDL and LDL, as well as delipidated apoB. […] The effect of PC vesicles on the interaction of apoB to polyclonal antibodies was studied by incubating immobilized LDL with the antibodies both in the presence and absence of PC. PC vesicles had no effect on binding.
# To study the effect of triglycerides (TG) on apoB/MTP specific binding, PC vesicles or emulsions containing two different concentrations of TG were prepared and their effect on LDL binding to MTP was compared with those of PC vesicles with no TG.
# The effect of different lipids was studied in more detail using PC-based vesicles (Table 3). Again, PC vesicles increased the binding of LDL to MTP by 3-fold.
# Required amounts of lipids in chloroform were added to a glass vial and the solvent was evaporated under nitrogen gas. A calculated amount of the buffer (15 mM Tris-HCl, 1 mM EDTA, 0.02% sodium azide, pH 7.4) was added, and the contents were sonicated (setting 5, output 50-60%) on ice until the solution was mostly clear. The vesicles were then centrifuged at 3500 rpm for 15 minutes, 4° C., and the supernatant used to assay the effect of vesicles on binding.
# LDL (20 nM) was incubated with immobilized MTP (1 μg/ml) in the presence and absence of different concentrations of PC or sphingomyelin vesicles for 2 hours at 37° C. and the amount of LDL bound quantitated. The amount of LDL bound in the absence of lipid vesicles was used as 100%. Parallel experiments were also performed wherein LDL (78 pM) was incubated with immobilized monoclonal antibody, 1D1, instead of MTP. LDL (20 nM) was also incubated with immobilized MTP in the presence of different concentrations of PC, PC/TG (molar ratio 400:1) vesicles, or PC/TG dispersions (molar ratio 1:1) for 2 hours at 37° C., and the amount of apoB bound was quantitated by ELISA.
# [3] = biological target: T1, immobilized LDL; assay: Binding of 125I-MTP / MTP fractions to immobilized LDL
# Description: The effect of phospholipids on the kinetic parameters of apoB-MTP binding was examined. […] No significant binding of LDL to MTP could be observed at low concentrations (≦3 nM) in the absence of vesicles. However, the effect of vesicles was significant at ≦12.5 nM of LDL. […] In four other experiments, decreases in Kd ranged between 1.5- to 3-fold. The effect of phospholipid vesicles on the binding of ^125I-MTP to immobilized LDL was also examined.
# To study the binding of lipid associated MTP with LDL, peaks A, B, and C were pooled, dialyzed and then used to study binding to immobilized LDL. The binding of lipid-poor MTP (peak B), which might have acquired few lipid molecules during its incubation with lipid vesicles, to LDL was increased (70%, P<0.005) compared to the binding of MTP not incubated with lipids (peak A). […] These studies indicate that lipid-associated MTP binds better to LDL as compared to lipid-poor and lipid-free MTP. It is believed that MTP forms stable complexes with phospholipid vesicles and these MTP/lipid complexes have higher affinity for apoB.
# Target sequence in this assay (P04114 28-4563, one chain of several): as the sequence (P04114 28-4563) above
# [4] = biological target: T2, LDL/MTP binding; assay: Effect of compounds on binding of LDL to immobilized MTP (ELISA); set-up: species or system human
# Description: (§1) Studies were performed to determine whether apoB/MTP binding was required for secretion of apoB-containing lipoproteins. Several compounds were screened. In the absence of any test compound, 15.47 fmol of low density lipoproteins (LDL)which contain ApoB was bound to immobilized MTP. Two test compounds, AGI-3 and AGI-S17, inhibited 70 to 90% of the binding at 40-50 μM concentrations. […] The effect of these same compounds on MTP's lipid transfer activity was also evaluated. BMS-200150 inhibited triglyceride transfer activity by 60% at concentrations in the range of 20 to 50 μM. AGI-3 inhibited only 20-30% of the activity at these same concentrations.
# ELISA plates coated in triplicate with purified heterodimeric MTP (1 μg/well) were incubated with human LDL (1 μg/well) in the presence of indicated concentrations of various compounds. Microtiter wells were washed three times with PBS-Tween and apoB bound was quantitated by a sandwich ELISA (Hussain, M. M. et al. 1995 Arterioscl. Thronb. Vasc. Biol. 15:485-494). In parallel, a standard curve for apoB was generated by coating wells with a monoclonal antibody, 1D1, and incubating with different concentrations of LDL (0-14 ng/well) as previously described (Hussain, M. M. et al. 1995 Arterioscl. Thromb . Vasc. Biol. 15:485-494).
# [5] = biological target: T3, MTP (Bos taurus, UniProt P55156); assay: MTP triglyceride transfer activity; assay type: biochemical; conditions: 20 to 50 μM
# T3 sequence (P55156 12-887): T2 sequence (P55156 12-887)
# T3 sequence (P05307 21-510 partner): T2 sequence (P05307 21-510 partner)
# Description: as §1
compound,measurement,setting,value
"apoA-I/lipid complexes: apoA-I incubated with lipid vesicles, complexes isolated by ultracentrifugation",binding to immobilized LDL compared to free apoA-I,[1],significantly less
phosphatidyl inositol [PI],effect of inclusion in PC vesicles on PC-stimulated binding of LDL to MTP,[2],significantly decreased
phosphatidyl serine [PS],effect of inclusion in PC vesicles on PC-stimulated binding of LDL to MTP,[2],significantly decreased
triglycerides [TG],effect on LDL binding to MTP,[2]; PC vesicles with or without TG,no additional effect
CC(C)CCC[C@@H](C)[C@H]1CC[C@H]2[C@@H]3CC=C4C[C@@H](O)CC[C@]4(C)[C@H]3CC[C@]12C [cholesterol],effect of inclusion in PC vesicles on PC-stimulated binding of LDL to MTP,[2],no additional effect
"peak B: lipid-poor MTP fraction recovered after incubation with PC vesicles, fractions 21-24",increase of binding to immobilized LDL compared to MTP not incubated with lipids (peak A),[3]; P<0.005,70%
"peak C: MTP associated with lipid vesicles, fractions 3-9",amount bound to LDL compared to MTP alone,[3],three-fold higher
O=C1c2ccccc2CN1C1CCN(CCC(c2ccccc2)c2ccccc2)CC1 [BMS-200150],effect on LDL/MTP binding,[4],did not effect LDL/MTP binding
same,inhibition of triglyceride transfer activity,[5],60%
